Assay results reported in patent US8268962B2, “Molecules for targeting compounds to various selected organs or tissues” (Prosensa Technologies B.V., priority 2007, dated 2012).
Where no end group is shown, it is not given here.

Columns and labels:
mdx mouse = test: In vivo targeting after subcutaneous injection of Cy5-labeled peptide (fluorescence imaging); conditions: 71 nmol subcutaneously on the back, 48 hours
Method: Peptide LGAQSNF was synthesized with the fluorescent label Cy5. This label can be detected with a high sensitivity by a fluorescence imaging system (NightOWL, Berthold Technologies) after systemic (intravenous or subcutaneous) injection into a mouse. This enables monitoring of the distribution across the different organs of a living mouse after injection of the compound. Of this peptide, 71 nmol was injected subcutaneously on the back of an mdx mouse and after 48 hours a picture was taken with the imaging system.
The mouse is lying on its back, and the back paws and an area on the abdomen were first shaved because the hairs on the skin impair detection of the signal. A clear signal could be detected in the back and front paws and in the tail. The signal in the shaved area on the abdomen is likely from abdominal muscle.

[1] = tested on: gastrocnemius (calf muscle) of mdx mice; conditions: intramuscular, 2.5-5 nmol, cross-sections after three days
Method: FAM-labeled peptides QLFTSAS (SEQ ID NO.: 3) (5 nmol injected), LYQDYSL (SEQ ID NO.: 85) (2.5 nmol injected) and LGAQSNF (SEQ ID NO.: 100) (2.5 nmol injected) were analysed. After three days the mice were sacrificed and the muscles were snap frozen. Cross-sections were cut, fixed with acetone and mounted for analysis with a fluorescence microscope. Cross-sections were cut and photographed with a fluorescence microscope (CCD camera).

[2] = tested on: gastrocnemius muscle of a healthy mouse; conditions: intramuscular, 5 nmol, after 3 days
Method: Uptake of the FAM-labeled peptides QLFTSAS (SEQ ID NO.: 3) and LGAQSNF (SEQ ID NO.: 100) was also tested on the muscle of a healthy mouse. Of each peptide 5 nmol was injected into the gastrocnemius muscle. After 3 days the mice were sacrified and the amount of staining was assessed. Samples were photographed with an inverted fluorescence microscope.

[3] = tested on: myotubes obtained from human KM109 myoblast cultures; test: Uptake of FAM-labeled peptides and conjugate into cultured myotubes (fluorescence microscopy); assay type: cell-based; conditions: tested on human and mouse myotubes, no fixation
Method: Two of the peptides that occurred frequently after selection on both mouse and human myotubes, SPNSIGT and QLFTSAS, were synthesized with a fluorescent label (FAM) and tested for uptake into human and mouse differentiated muscle cells (myotubes). Myotubes were obtained from confluent human KM109 myoblast cultures by 7-14 days of serum deprivation. The culture was subsequently incubated with FAM-labeled peptide and photographed with an inverted fluorescence microscope, without previous fixation.
Peptide QLFTSAS was synthesized with a fluorescent label (FAM) and subsequently conjugated to a 21-mer 2′O-methyl phosphorothioate anti-sense oligonucleotide (AON). Myotubes were obtained from confluent human KM109 myoblast cultures by 7-14 days of serum deprivation. The culture was subsequently incubated with the FAM-labeled conjugate and photographed with an inverted fluorescence microscope, without previous fixation.
Three of the peptides that were found after four rounds of in vivo selection, were synthesized with a fluorescent label (FAM) and tested in cell culture for uptake on human myotubes as described in Example 1.

Row | Substance | distribution of Cy5-labeled peptide (mdx mouse) | uptake of FAM-labeled peptide into muscle fibers [1] | uptake of FAM-labeled peptide into myofibers of the injected muscle [2] | uptake of FAM-labeled peptide into cultured myotubes [3]
1 | Cy5-labeled peptide LGAQSNF: Peptide LGAQSNF synthesized with the fluorescent label Cy5 (also: Cy5 label) | taken up by the abdominal muscle and by muscles in the hindlegs, paws and tail | – | – | –
2 | LGAQSNF | – | taken up into a large area of muscle fibers and were still visible after 3 days | significant area of uptake | –
3 | LYQDYSL | – | taken up into a large area of muscle fibers and were still visible after 3 days | – | –
4 | QLFTSAS (also: FAM label) | – | taken up into a large area of muscle fibers and were still visible after 3 days | significant area of uptake | significant uptake
5 | SPNSIGT (also: FAM label) [7-mer peptide from in vitro phage selection on myotubes; tested with FAM label] | – | – | – | significant uptake
